Source: PubChem BioAssay (NCI)
Where “and” joins values, the source holds several entries; their conditions need not be identical. Identical values can stand only once.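 These data come from cells grown in 96-well plates and exposed to compound for 48 hours at five concentrations. GI50 = concentration required for 50% inhibition of growth. TGI: total growth inhibition.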

Key:
Assay in all cases: NCI anticancer screen, dose series, 48 h
NCI/ADR-RES ovarian = system: NCI/ADR-RES ovarian
HL-60(TB) leukemia = system: HL-60(TB) leukemia
SW-620 colon = system: SW-620 colon
MCF7 breast = system: MCF7 breast
786-0 renal = system: 786-0 renal
SF-539 CNS = system: SF-539 CNS
HCC-2998 colon = system: HCC-2998 colon
EKVX NSCLC = system: EKVX NSCLC
SK-MEL-5 melanoma = system: SK-MEL-5 melanoma
OVCAR-8 ovarian = system: OVCAR-8 ovarian

SMILES	GI50 (NCI/ADR-RES ovarian)	TGI (NCI/ADR-RES ovarian)	GI50 (HL-60(TB) leukemia)	TGI (HL-60(TB) leukemia)	GI50 (SW-620 colon)	TGI (SW-620 colon)	GI50 (MCF7 breast)	TGI (MCF7 breast)	GI50 (786-0 renal)	TGI (786-0 renal)	GI50 (SF-539 CNS)	TGI (SF-539 CNS)	GI50 (HCC-2998 colon)	TGI (HCC-2998 colon)	GI50 (EKVX NSCLC)	TGI (EKVX NSCLC)	GI50 (SK-MEL-5 melanoma)	TGI (SK-MEL-5 melanoma)	GI50 (OVCAR-8 ovarian)	TGI (OVCAR-8 ovarian)
O=[As]c1ccc(C(=O)c2ccc(Oc3ccccc3)cc2)cc1 (stereo not given)	0.0378 µM	0.143 µM	0.119 µM	0.463 µM	0.0248 µM	0.111 µM	0.0181 µM	0.0903 µM	0.0576 µM	0.166 µM	0.066 µM	0.218 µM	0.0727 µM	0.213 µM	0.0688 µM	0.205 µM	0.0539 µM	0.174 µM	0.0389 µM	0.146 µM
Cc1c(C(=O)O[C@H]2[C@@H]3[C@H](C)CC[C@H]3[C@]3(C)O[C@@]2(C2CCCCC2)C[C@H]3OC(=O)CO)ccc2ccccc12	5.65 µM	12.8 µM	9.3 µM	20 µM	8.01 µM	16.3 µM	7.38 µM	15.9 µM	6.52 µM	13.1 µM	7.65 µM	14.9 µM	8.09 µM	15.8 µM	6.94 µM	14.2 µM	7.28 µM	13.8 µM	6.64 µM	13.8 µM
O=C(CCl)Nc1cc(O)c2c(c1)C(=O)c1cccc(O)c1C2=O	2.47 µM	> 29.2 µM	2.44 µM	6.08 µM	1.1 µM	3.95 µM	0.725 µM	2.61 µM	1.99 µM	4.16 µM	2.29 µM	6.6 µM	1.75 µM	3.4 µM	1.77 µM	4.52 µM	0.549 µM	1.61 µM	2.09 µM	7.65 µM
C=CCCC(=O)N1C=CC(=O)[C@H](O)[C@@H]1/C=C/c1ccccc1	6.38 µM	> 32.5 µM	4.35 µM	28 µM	12.8 µM	> 32.5 µM	6.55 µM	> 32.5 µM	9.84 µM	> 32.5 µM	7.87 µM	> 32.5 µM	11.6 µM	> 32.5 µM	7.63 µM	> 32.5 µM	3.93 µM	12.3 µM	16 µM	> 32.5 µM
O=c1c2c3c(sc2n2c(-c4ccc(Br)cc4)nnc2n1Cc1ccccc1)CCCC3	12.8 µM	36 µM	14.1 µM	77.5 µM	13.1 µM	26.3 µM	10.6 µM	23.2 µM	3.96 µM	14.6 µM	11.9 µM	32.3 µM	3.25 µM	13.4 µM	10.6 µM	23.4 µM	3.8 µM	14.3 µM	15.5 µM	37 µM
CCOc1cc(C(C)(C)C)ccc1C1=N[C@@](C)(c2ccc(Cl)cc2)[C@@](C)(c2ccc(Cl)cc2)N1C(=O)N1CCN(CCS(C)(=O)=O)CC1	4.09 µM	24.4 µM	2.21 µM	5.22 µM	5.03 µM	20.5 µM	0.606 µM	3.75 µM	4 µM	14.5 µM	2.32 µM	6.16 µM	2.28 µM	4.98 µM			1.38 µM	2.73 µM	4.44 µM	26.5 µM
COc1cc([C@@H]2c3cc4c(cc3C(OC3O[C@@H]5COC(C)O[C@H]5[C@H](O)[C@H]3O)C3COC(=O)[C@@H]32)OCO4)cc(OC)c1O (stereo not given in full)	15.4 µM	> 50 µM	0.182 µM	1.53 µM	0.67 µM	> 27.2 µM	0.254 µM	> 50 µM	0.976 µM	3.67 µM	0.635 µM	3.78 µM	1.91 µM	11.2 µM	11.4 µM	> 50 µM	0.861 µM	7.96 µM	1.56 µM	> 34.8 µM
CN(C)CCNc1nc2ccccc2c2c(=O)c3ccccc3sc12	1.96 µM	6.43 µM	1.82 µM	4.21 µM	1.39 µM	3.12 µM	1.37 µM	3.05 µM	1.49 µM	2.98 µM	1.78 µM	3.58 µM	1.74 µM	3.46 µM	1.66 µM	4.98 µM	1.58 µM	3 µM	2.36 µM	6.92 µM
CCCn1c(N)c(C(=O)CNc2ccc(I)cc2)c(=O)[nH]c1=O	> 25.3 µM	> 100 µM	10.5 µM	> 100 µM	2.89 µM	> 100 µM	0.806 µM	> 100 µM	4.21 µM	> 100 µM	0.84 µM	> 45.6 µM	4.23 µM	> 90.6 µM	> 64.3 µM	> 100 µM	0.861 µM	> 100 µM	4.72 µM	> 100 µM
COc1cc(/C=N\O)nc(-c2ccccn2)c1		> 49.6 µM		> 35.5 µM		> 100 µM		> 100 µM		> 100 µM		> 32.8 µM		> 100 µM		23.5 µM				
CCCCCc1c(C)[nH]c(/C=C2\N=C(c3ccc[nH]3)C=C2OCc2ccccc2)c1C	0.255 µM and 0.0776 µM	1.46 µM and 0.761 µM	0.0623 µM	0.425 µM	0.0369 µM and 0.0295 µM	1.21 µM and 0.322 µM	0.0395 µM and 0.0361 µM	0.859 µM and 1.06 µM	0.052 µM and 0.0348 µM	0.378 µM and 0.226 µM	0.0668 µM and 0.0492 µM	1.08 µM and 0.263 µM	0.0419 µM and 0.038 µM	1.7 µM and 1.24 µM			0.0358 µM and 0.0186 µM	0.138 µM and 0.0471 µM	0.0489 µM and 0.039 µM	1.23 µM and 0.172 µM
CCCCOc1ccc(/C=N/Nc2cc(C)nc3ccc(Cl)cc23)cc1	1.73 µM	3.36 µM	1.76 µM	3.65 µM			1.65 µM	3.37 µM	2 µM	3.76 µM	1.84 µM	3.28 µM	1.91 µM	3.38 µM	1.63 µM	3.01 µM	1.61 µM	2.97 µM	1.78 µM	3.46 µM
CC(C)(C)C(=O)OCc1nc2cc3c(cc2c(=O)[nH]1)CCC3=O	> 100 µM	> 100 µM	> 100 µM	> 100 µM	> 100 µM	> 100 µM	> 100 µM	> 100 µM	> 100 µM	> 100 µM	> 100 µM	> 100 µM	> 100 µM	> 100 µM			> 100 µM	> 100 µM	> 100 µM	> 100 µM
